Here are results for seven molecules from patent US20140323504A1, “Pyrazolo[4,3-c]Pyridine Derivatives As Kinase Inhibitors” (Cellzome Limited, priority 2011, published 2014).

Several values for one entry are separate records, joined by “and”; a condition that tells them apart may be missing. Identical values can stand only once.

Test [1] concerns the target T1, Tyk2 (Homo sapiens, UniProt P29597).
T1 construct: endogenous in cells; host or cells: mixed Molt4/Ramos cell lysate (1:2)
Kind of test: Kinobeads assay with antibody detection, TYK2. Type of test: binding. As to conditions: mixed Molt4/Ramos lysate, read-out: Tyk2 inhibition value (IC50). The procedure: (§1) The compounds of the present invention as described in the previous examples were tested in a Kinobeads™ assay as described for ZAP-70 (WO-A 2007/137867). Briefly, test compounds (at various concentrations) and the affinity matrix with the immobilized aminopyrido-pyrimidine ligand 24 were added to cell lysate aliquots and allowed to bind to the proteins in the lysate sample. After the incubation time the beads with captured proteins were separated from the lysate. Bound proteins were then eluted and the presence of JAK1; JAK2, JAK3 and TYK2 was detected and quantified using specific antibodies in a dot blot procedure and the Odyssey infrared detection system. Dose response curves for individual kinases were generated and IC50 values calculated. Kinobeads™ assays for ZAP-70 (WO-A 2007/137867) and for kinase selectivity profiling (WO-A 2006/134056) have been previously described.
(§2) 5×DP buffer: 250 mM Tris-HCl pH 7.4, 25% Glycerol, 7.5 mM MgCl2, 750 mM NaCl, 5 mM Na3VO4; filter the 5×DP buffer through a 0.22 μm filter and store in aliquot at −80° C. The 5×DP buffer is diluted with H2O to 1×DP buffer containing 1 mM DTT and 25 mM NaF.
(§3) Stock solutions of test compounds were prepared in DMSO. In a 96 well plate 30 μL solution of diluted test compounds at 5 mM in DMSO were prepared. Starting with this solution a 1:3 dilution series (9 steps) was prepared. For control experiments (no test compound) a buffer containing 2% DMSO was used.
(§4) Molt4 cells (ATCC catalogue number CRL-1582) and Ramos cells (ATCC catalogue number CRL-1596) were grown in 1 L Spinner flasks (Integra Biosciences, #182101) in suspension in RPMI 1640 medium (Invitrogen, #21875-034) supplemented with 10% Fetal Bovine Serum (Invitrogen) at a density between 0.15×10^6 and 1.2×10^6 cells/mL. Cells were harvested by centrifugation, washed once with 1×PBS buffer (Invitrogen, #14190-094) and cell pellets were frozen in liquid nitrogen and subsequently stored at −80° C. Cells were homogenized in a Potter S homogenizer in lysis buffer: 50 mM Tris-HCl, 0.8% NP40, 5% glycerol, 150 mM NaCl, 1.5 mM MgCl2, 25 mM NaF, 1 mM sodium vanadate, 1 mM DTT, pH 7.5. One complete EDTA-free tablet (protease inhibitor cocktail, Roche Diagnostics, 1873580) per 25 mL buffer was added. The material was dounced 10 times using a mechanized POTTER S, transferred to 50 mL falcon tubes, incubated for 30 minutes on ice and spun down for 10 minutes at 20,000 g at 4° C. (10,000 rpm in Sorvall SLA600, precooled). The supernatant was transferred to an ultracentrifuge (UZ)-polycarbonate tube (Beckmann, 355654) and spun for 1 hour at 100.000 g at 4° C. (33.500 rpm in Ti50.2, precooled). The supernatant was transferred again to a fresh 50 mL falcon tube, the protein concentration was determined by a Bradford assay (BioRad) and samples containing 50 mg of protein per aliquot were prepared. The samples were immediately used for experiments or frozen in liquid nitrogen and stored frozen at −80° C.
(§5) Cell lysate (approximately 50 mg protein per plate) was thawed in a water bath at room temperature and then stored on ice. To the thawed cell lysate 1×DP 0.8% NP40 buffer containing protease inhibitors (1 tablet for 25 mL buffer; EDTA-free protease inhibitor cocktail; Roche. Diagnostics 1873580) was added in order to reach a final protein concentration of 10 mg/mL total protein. The diluted cell lysate was stored on ice. Mixed Molt4Ramos lysate was prepared by combining one volume of Molt4 lysate and two volumes of Ramos lysate (ratio 1:2).
(§6) Plates were sealed and incubated for 3 hours in a cold room on a plate shaker (Heidolph tiramax 1000) at 750 rpm. Afterwards the plate was washed 3 times with 230 μL washing buffer (1×DP 0.4% NP40). The filter plate was placed on top of a collection plate (Greiner bio-one, PP-microplate 96 well V-shape, 65120) and the beads were then eluted with 20 μL of sample buffer (100 mM Tris, pH 7.4, 4% SDS, 0.00025% bromophenol blue, 20% glycerol, 50 mM DTT). […]

Test [2] addresses T2, JAK3 (Homo sapiens, UniProt P52333).
T2 sequence (P52333 1-1124): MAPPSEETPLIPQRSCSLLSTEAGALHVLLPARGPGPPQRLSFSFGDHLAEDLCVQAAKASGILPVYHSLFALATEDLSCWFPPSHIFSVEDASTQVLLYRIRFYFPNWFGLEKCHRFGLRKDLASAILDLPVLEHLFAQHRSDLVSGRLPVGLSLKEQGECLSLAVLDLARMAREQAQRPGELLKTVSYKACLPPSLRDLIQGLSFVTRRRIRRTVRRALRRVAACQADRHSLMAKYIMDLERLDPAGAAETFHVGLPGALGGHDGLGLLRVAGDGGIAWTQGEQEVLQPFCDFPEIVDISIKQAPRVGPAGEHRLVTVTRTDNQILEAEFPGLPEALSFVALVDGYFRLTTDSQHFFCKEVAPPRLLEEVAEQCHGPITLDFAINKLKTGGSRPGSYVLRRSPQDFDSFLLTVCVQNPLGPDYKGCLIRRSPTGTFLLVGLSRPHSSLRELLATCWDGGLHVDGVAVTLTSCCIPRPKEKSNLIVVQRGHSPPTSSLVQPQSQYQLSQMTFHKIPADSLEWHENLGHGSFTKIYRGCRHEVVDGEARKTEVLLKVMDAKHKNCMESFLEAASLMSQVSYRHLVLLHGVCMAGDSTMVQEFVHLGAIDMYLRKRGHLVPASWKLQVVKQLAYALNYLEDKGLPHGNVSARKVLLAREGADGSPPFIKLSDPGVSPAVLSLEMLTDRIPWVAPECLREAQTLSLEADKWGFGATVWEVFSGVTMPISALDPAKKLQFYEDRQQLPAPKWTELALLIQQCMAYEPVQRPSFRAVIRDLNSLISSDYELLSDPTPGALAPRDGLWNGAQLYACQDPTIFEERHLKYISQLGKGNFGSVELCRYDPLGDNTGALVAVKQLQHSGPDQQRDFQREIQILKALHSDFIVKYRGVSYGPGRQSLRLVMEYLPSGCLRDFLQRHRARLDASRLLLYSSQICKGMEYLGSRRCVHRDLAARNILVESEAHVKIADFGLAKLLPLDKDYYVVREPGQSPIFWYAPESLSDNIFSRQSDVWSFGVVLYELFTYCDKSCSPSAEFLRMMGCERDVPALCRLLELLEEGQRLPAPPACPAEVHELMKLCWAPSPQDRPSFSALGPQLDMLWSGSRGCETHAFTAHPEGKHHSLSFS
The test can be described thus: Kinobeads assay with antibody detection, JAK3. It is filed as binding. On the set-up: endogenous in cells; host or cells: mixed Molt4/Ramos cell lysate (1:2). As to conditions: mixed Molt4/Ramos lysate, read-out: JAK3 inhibition value (IC50). As to the method: as §1, §2, §3, §4, §5, §6

The target in test [3] is T3, JAK1 (Homo sapiens, UniProt P23458).
T3 construct: endogenous in cells; host or cells: mixed Molt4/Ramos cell lysate (1:2)
T3 sequence (P23458 whole entry): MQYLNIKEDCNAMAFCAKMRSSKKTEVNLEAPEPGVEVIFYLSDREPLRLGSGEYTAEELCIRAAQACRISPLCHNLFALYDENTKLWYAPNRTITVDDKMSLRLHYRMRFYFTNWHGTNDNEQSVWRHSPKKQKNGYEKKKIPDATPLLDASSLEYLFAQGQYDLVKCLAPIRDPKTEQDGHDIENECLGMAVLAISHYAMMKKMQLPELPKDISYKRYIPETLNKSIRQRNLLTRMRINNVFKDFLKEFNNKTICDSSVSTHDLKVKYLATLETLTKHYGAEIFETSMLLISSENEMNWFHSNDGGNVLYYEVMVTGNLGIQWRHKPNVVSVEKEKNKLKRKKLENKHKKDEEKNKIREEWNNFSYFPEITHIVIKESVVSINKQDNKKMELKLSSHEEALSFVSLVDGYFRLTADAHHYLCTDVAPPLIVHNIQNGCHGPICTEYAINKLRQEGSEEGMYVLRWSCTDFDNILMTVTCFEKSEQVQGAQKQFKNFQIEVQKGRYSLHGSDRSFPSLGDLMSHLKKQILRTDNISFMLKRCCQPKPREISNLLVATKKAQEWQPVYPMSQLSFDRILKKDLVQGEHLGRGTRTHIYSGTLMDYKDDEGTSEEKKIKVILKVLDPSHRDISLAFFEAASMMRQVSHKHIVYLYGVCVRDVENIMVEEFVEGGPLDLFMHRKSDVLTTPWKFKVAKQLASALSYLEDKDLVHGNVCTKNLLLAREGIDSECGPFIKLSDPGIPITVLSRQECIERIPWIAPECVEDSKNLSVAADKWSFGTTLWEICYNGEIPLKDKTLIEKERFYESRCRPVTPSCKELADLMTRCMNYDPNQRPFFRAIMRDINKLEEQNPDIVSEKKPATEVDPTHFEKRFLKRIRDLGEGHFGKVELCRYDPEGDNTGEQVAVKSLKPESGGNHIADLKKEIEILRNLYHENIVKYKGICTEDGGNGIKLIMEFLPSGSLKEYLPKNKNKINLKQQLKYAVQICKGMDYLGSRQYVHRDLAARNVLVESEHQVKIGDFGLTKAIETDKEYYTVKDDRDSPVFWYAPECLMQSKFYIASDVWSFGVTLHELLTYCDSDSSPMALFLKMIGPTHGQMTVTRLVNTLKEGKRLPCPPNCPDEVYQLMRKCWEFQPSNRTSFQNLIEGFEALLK
Kind of test: Kinobeads assay with antibody detection, JAK1. It is filed as binding. As to conditions: mixed Molt4/Ramos lysate, read-out: JAK1 inhibition value (IC50). The procedure: as §1, §2, §3, §4, §5, §6

Test [4] concerns the target T4, JAK2 (Homo sapiens, UniProt O60674).
T4 construct: endogenous in cells; host or cells: mixed Molt4/Ramos cell lysate (1:2)
Kind of test: Kinobeads assay with antibody detection, JAK2. Type of test: binding. As to conditions: mixed Molt4/Ramos lysate, read-out: JAK2 inhibition value (IC50). The procedure: as §1, §2, §3, §4, §5, §6

Test [5] deals with STAT5 phosphorylation in IL-2 stimulated YT cells. Kind of test: Cell assay with washout of compounds (pSTAT5, YT cells, MSD). It is filed as cell-based, human. The procedure:
This time course experiment allows determination as to whether the pharmacological effect of the tested compounds persists over time even after the compound is removed from the cell samples.
Human YT cells were grown as described above. Cells were harvested by centrifugation and resuspended in RPMI0.5% heat-inactivated FBS. 3×10^5 cells were seeded in 60 μl per well in a round-bottomed 96 well plate (BD-Falcon, 353077).
Test compounds were dissolved in DMSO and a 1:3 dilution series (9 steps) was prepared. To generate a dose response curve, 30 μl of fourfold concentrated compound in 4% DMSO/RPMI/0.5% FBS were added to each cell sample in the 96 well plate resulting in a final DMSO concentration of 1% DMSO. Cells were incubated for one hour in a humidified incubator (37° C., 5% CO2). After incubation cells were washed twice by centrifugation and replacement of media (RPMI/0.5% FBS), with the exception of the time 0 plate. Washed cells were incubated for 30 min, 1, 2 and 4 hours in a humidified incubator (37° C., 5% CO2) prior to stimulation with IL-2. To each well 30 μl of a fourfold concentrated IL-2 solution (Recombinant human IL-2, Peprotech 200-02; 120 nM solution in RPMI) was added and incubated for 30 minutes at room temperature. Cells were lysed by adding 30 μl of 5× lysis buffer (MSD lysis buffer) and incubated for 10 minutes at 4° C. with gentle shaking.
The effect of compounds on STATS phosphorylation was determined in lysates using the MSD MULTI-SPOT® 96 4-spot phosphor-STAT5a,b whole cell lysatc kit (MesoScale Discovery, K150IGD-3) according to the manufacturer's protocol. Data were analysed in BioAssay using the nonlinear regression for a sigmoidal dose-response with a variable slope and IC50 values were determined.

For test [6], the system named is animal model of organ transplantation. As to conditions: Changelian et al., 2003; cited from earlier work.
For test [7], the system named is NOD mouse model of type I diabetes. To be noted: cited from earlier work.
Test [8] deals with GVHD. To be noted: Cetkovic-Cvrlje and Ucken, 2004; cited from earlier work.
Setting [9] is: IL-2 stimulated YT cells, 0 min (no wash).

T1 sequence (P29597 whole entry): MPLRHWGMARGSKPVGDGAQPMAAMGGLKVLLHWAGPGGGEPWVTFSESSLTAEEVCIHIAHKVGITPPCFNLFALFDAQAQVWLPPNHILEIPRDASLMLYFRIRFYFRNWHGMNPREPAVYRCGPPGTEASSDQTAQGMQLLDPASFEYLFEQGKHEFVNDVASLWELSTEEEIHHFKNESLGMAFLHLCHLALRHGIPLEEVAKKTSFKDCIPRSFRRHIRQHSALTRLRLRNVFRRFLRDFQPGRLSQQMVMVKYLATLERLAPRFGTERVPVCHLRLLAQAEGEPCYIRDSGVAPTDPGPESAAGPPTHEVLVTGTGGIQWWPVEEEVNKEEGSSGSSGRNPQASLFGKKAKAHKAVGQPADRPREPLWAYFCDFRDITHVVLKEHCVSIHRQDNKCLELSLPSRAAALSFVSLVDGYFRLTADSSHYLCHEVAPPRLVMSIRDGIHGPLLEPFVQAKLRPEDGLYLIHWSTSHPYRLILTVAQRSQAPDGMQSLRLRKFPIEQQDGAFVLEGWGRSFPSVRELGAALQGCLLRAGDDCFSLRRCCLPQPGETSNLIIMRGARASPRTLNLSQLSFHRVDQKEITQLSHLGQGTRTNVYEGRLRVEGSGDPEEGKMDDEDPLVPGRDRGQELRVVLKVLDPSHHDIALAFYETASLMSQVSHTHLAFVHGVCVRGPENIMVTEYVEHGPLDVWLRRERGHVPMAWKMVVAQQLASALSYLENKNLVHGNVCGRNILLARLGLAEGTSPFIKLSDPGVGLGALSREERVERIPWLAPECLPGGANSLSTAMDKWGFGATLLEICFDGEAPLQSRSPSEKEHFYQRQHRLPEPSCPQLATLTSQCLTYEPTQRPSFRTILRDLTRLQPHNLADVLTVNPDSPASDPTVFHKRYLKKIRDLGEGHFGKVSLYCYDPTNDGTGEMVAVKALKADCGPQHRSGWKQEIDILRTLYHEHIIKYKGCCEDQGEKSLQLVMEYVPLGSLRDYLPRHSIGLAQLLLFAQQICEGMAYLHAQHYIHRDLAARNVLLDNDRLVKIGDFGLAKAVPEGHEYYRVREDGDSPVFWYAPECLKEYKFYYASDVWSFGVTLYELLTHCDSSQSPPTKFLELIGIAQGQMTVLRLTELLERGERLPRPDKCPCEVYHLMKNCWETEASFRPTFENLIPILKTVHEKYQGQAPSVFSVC
T4 sequence (O60674 whole entry): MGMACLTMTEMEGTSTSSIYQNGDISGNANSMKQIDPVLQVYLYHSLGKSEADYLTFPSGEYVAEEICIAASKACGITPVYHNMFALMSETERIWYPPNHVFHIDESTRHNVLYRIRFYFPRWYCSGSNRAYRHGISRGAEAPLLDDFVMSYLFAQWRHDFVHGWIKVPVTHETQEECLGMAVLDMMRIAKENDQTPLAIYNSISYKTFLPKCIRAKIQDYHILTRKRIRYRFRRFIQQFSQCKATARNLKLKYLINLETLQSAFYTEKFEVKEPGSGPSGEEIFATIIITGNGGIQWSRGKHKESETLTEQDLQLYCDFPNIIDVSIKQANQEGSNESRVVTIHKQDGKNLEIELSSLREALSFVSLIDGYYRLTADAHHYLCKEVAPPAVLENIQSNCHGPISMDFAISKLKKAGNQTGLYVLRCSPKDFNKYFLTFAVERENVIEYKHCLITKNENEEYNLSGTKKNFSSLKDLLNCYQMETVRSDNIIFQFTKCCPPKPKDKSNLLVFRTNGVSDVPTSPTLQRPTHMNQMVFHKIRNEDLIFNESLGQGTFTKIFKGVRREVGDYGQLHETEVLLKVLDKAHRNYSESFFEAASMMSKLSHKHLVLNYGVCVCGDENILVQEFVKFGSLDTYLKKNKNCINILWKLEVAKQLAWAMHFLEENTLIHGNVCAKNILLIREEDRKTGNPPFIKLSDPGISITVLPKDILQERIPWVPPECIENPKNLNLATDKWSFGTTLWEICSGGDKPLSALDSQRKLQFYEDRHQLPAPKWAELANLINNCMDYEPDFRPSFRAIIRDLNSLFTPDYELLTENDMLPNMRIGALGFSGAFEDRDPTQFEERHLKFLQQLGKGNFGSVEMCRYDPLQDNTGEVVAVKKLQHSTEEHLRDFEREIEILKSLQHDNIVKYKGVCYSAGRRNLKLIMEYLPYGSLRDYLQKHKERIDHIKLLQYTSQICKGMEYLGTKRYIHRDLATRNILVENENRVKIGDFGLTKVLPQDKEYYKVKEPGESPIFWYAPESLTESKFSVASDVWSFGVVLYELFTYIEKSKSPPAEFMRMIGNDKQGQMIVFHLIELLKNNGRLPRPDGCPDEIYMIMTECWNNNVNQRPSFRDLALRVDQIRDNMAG

With `C=CC(=O)Nc1cccc(Cn2ncc3cnc(Nc4cnn(C)c4)cc32)c1` [Example 10, N-(3-((6-((1-Methyl-1H-pyrazol-4-yl)amino)-1H-pyrazolo[4,3-c]pyridin-1-yl)methyl)phenyl)acrylamide], the IC50 in test [1] was 5.08 µM; in test [2], 0.001 µM; in test [3], 5.37 µM; in test [4] it was greater than 10 µM.

As to `C=CC(=O)Nc1cccc(Cn2ccc3cnc(Nc4cnn(C)c4)nc32)c1` [Example 9, N-(3-((2-((1-Methyl-1H-pyrazol-4-yl)amino)-7H-pyrrolo[2,3-d]pyrimidin-7-yl)methyl)phenyl)acrylamide], the IC50 was 8.08 µM in test [1], 0.003 µM in test [2], 9.42 µM in test [3] and greater than 10 µM in test [4].

Regarding `CC(C)=CC(=O)Nc1cccc(Cn2ncc3cnc(Nc4cnn(C)c4)nc32)c1` [Example 6, 3-Methyl-N-(3-((6-((1-methyl-1H-pyrazol-4-yl)amino)-1H-pyrazolo[3,4-d]pyrimidin-1-yl)methyl)phenyl)but-2-enamide], the IC50 in test [1] is greater than 10 µM; in test [2], 1.31 µM; in test [3], greater than 10 µM; in test [4] it was greater than 10 µM.

Take `C=CC(=O)Nc1cccc(Cn2ncc3cnc(Nc4ccn(C)n4)cc32)c1` [Example 8, N-(3-((6-((1-Methyl-1H-pyrazol-3-yl)amino)-1H-pyrazolo[4,3-c]pyridin-1-yl)methyl)phenyl)acrylamide]: the IC50 in test [1] is greater than 10 µM; in test [2], 0.005 µM; in test [3], greater than 10 µM; in test [4] it was greater than 10 µM.

Turning to `C[C@@H]1CCN(C(=O)CC#N)C[C@@H]1N(C)c1ncnc2[nH]ccc12` [Reference example 3, CP 690,550], the “pSTAT5 inhibition pIC50, 0 min (no wash)” value in test [5] (setting [9]) is 7.6 and 7.8. Besides, in test [5] (IL-2 stimulated YT cells), the “pSTAT5 inhibition pIC50, 30 min after washout” value is 5.1; the “pSTAT5 inhibition pIC50, 1 hour after washout” value was “inactive”; the “pSTAT5 inhibition pIC50, 2 hours after washout” value was “inactive”; the “pSTAT5 inhibition pIC50, 4 hours after washout” value is given as “Inactive”. Further, in test [5] (YT cells, 30 minutes after washing), the “activity 30 minutes after the washing of cells” value was “significant drop in activity”. Also, in test [5] (YT cells, 1 hour after washing), the “inhibition activity 1 hour after washing” value is “completely lost”. In addition, the “efficacy in organ transplantation model” value in test [6] is listed as “show efficacy in an animal model of organ transplantation”.

For the molecule `Cn1cc(Nc2ncc3cnn(Cc4cccc(NC5COC5)c4)c3n2)cn1` [Reference example 1, N-(1-methyl-1H-pyrazol-4-yl)-1-(3-(oxetan-3-ylamino)benzyl)-1H-pyrazolo[3,4-d]pyrimidin-6-amine], the IC50 in test [5] (Homo sapiens, 0 h, IL-2 stimulated YT cells, 0 min (no wash), read-out: pSTAT5 inhibition pIC50, 0 min (no wash) (converted)) is 1.58 µM. Moreover, in test [5] (setting [9]), the “pSTAT5 inhibition pIC50, 0 min (no wash)” value was 5.7. Moreover, in test [5] (IL-2 stimulated YT cells), the “pSTAT5 inhibition pIC50, 30 min after washout” value was “inactive”; the “pSTAT5 inhibition pIC50, 1 hour after washout” value is “inactive”; the “pSTAT5 inhibition pIC50, 2 hours after washout” value is “inactive”; the “pSTAT5 inhibition pIC50, 4 hours after washout” value is “inactive”.

As to `COc1cc2ncnc(Nc3ccc(O)cc3)c2cc1OC` [JANEX-1], the “spontaneous autoimmune diabetes development” value in test [7] was “prevent spontaneous autoimmune diabetes development”. Besides, the “severity of GVHD” value in test [8] was “attenuate the severity of GVHD”.
